According to PubChem BioAssay AID330 (DTP/NCI, 2004):
“And” between values parts separate entries of the source, which are not always exact repeats. Identical values can stand only once. Toxic doses and inconclusive results are not listed.

System: P388 leukemia ip, CD2F1 mice, survival T/C
Experiment: NCI In Vivo Anticancer Drug Screen. Data for tumor model P388 Leukemia (intraperitoneal) in CD2F1 (CDF1) mice
Conditions: endpoint: median survival time, higher = longer survival
Outline: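 Mice carrying the transplanted tumor received test compound or vehicle. Survival was recorded in each group, and the value is the treated-group measurement divided by that of the vehicle-treated control group.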

[1] = dose: 100.0 mg/kg/injection, schedule: Q01DX009 (ip), vehicle: saline with Tween-80
[2] = dose: 200.0 mg/kg/injection, schedule: Q01DX009 (ip), vehicle: saline with Tween-80
[3] = dose: 50.0 mg/kg/injection, schedule: Q01DX005 (ip), vehicle: saline with Tween-80
[4] = dose: 100.0 mg/kg/injection, schedule: Q01DX005 (ip), vehicle: saline with Tween-80
[5] = dose: 200.0 mg/kg/injection, schedule: Q01DX005 (ip), vehicle: saline with Tween-80
[6] = dose: 50.0 mg/kg/injection, schedule: Q01DX005 (ip), vehicle: Klucel (hydroxypropylcellulose) (HPC)
[7] = dose: 100.0 mg/kg/injection, schedule: Q01DX005 (ip), vehicle: Klucel (hydroxypropylcellulose) (HPC)
[8] = dose: 200.0 mg/kg/injection, schedule: Q01DX005 (ip), vehicle: Klucel (hydroxypropylcellulose) (HPC)
[9] = dose: 60.0 mg/kg/injection, schedule: Q01DX005 (ip), vehicle: saline with Tween-80
[10] = dose: 120.0 mg/kg/injection, schedule: Q01DX005 (ip), vehicle: saline with Tween-80
[11] = dose: 240.0 mg/kg/injection, schedule: Q01DX005 (ip), vehicle: saline with Tween-80
[12] = dose: 50.0 mg/kg/injection, schedule: Q01DX009 (ip), vehicle: Klucel (hydroxypropylcellulose) (HPC)
[13] = dose: 100.0 mg/kg/injection, schedule: Q01DX009 (ip), vehicle: Klucel (hydroxypropylcellulose) (HPC)
[14] = dose: 200.0 mg/kg/injection, schedule: Q01DX009 (ip), vehicle: Klucel (hydroxypropylcellulose) (HPC)
[15] = dose: 100.0 mg/kg/injection, schedule: Q04DX003 (ip), vehicle: saline with Tween-80
[16] = dose: 200.0 mg/kg/injection, schedule: Q04DX003 (ip), vehicle: saline with Tween-80
[17] = dose: 400.0 mg/kg/injection, schedule: Q04DX003 (ip), vehicle: saline with Tween-80
[18] = dose: 50.0 mg/kg/injection, schedule: Q04DX003 (ip), vehicle: saline with Tween-80

c1cnc2c3cnc4sccc4c3nn2c1
T/C (dose: 100.0 mg/kg/injection, schedule: Q04DX002 (ip), vehicle: saline with Tween-80): 93 % of control
T/C (dose: 200.0 mg/kg/injection, schedule: Q04DX002 (ip), vehicle: saline with Tween-80): 88 % of control
T/C (dose: 400.0 mg/kg/injection, schedule: Q04DX002 (ip), vehicle: saline with Tween-80): 93 % of control

NC(=S)c1ccc(C2Nc3cccnc3N2)cc1 (centres undefined)
T/C (dose: 50.0 mg/kg/injection, schedule: Q01DX009 (ip), vehicle: saline with Tween-80): 93 % of control
T/C [1]: 95 % of control
T/C [2]: 90 % of control

CCc1ccc2c(c1)C(O)(c1ccccc1)c1c(c(-c3ccccc3)c3ccccc3c1-c1ccccc1)C2(O)c1ccccc1 (centres undefined)
T/C [3]: 92 % of control
T/C [4]: 89 % of control
T/C [5]: 89 % of control

COc1cc2c(c(NC(C)CCCN=C(N)NC(N)=NC(C)C)c1)NCCC2 (centres undefined)
T/C (dose: 3.12 mg/kg/injection, schedule: Q01DX005 (ip), vehicle: saline with Tween-80): 103 % of control
T/C (dose: 6.25 mg/kg/injection, schedule: Q01DX005 (ip), vehicle: saline with Tween-80): 106 % of control
T/C (dose: 12.5 mg/kg/injection, schedule: Q01DX005 (ip), vehicle: saline with Tween-80): 106 % of control

CC(=O)OCC1OC(Oc2cccc(C=C(C(C)=O)C(C)=O)c2)C(OC(C)=O)C(OC(C)=O)C1OC(C)=O (centres undefined)
T/C [6]: 100 % of control
T/C [7]: 98 % of control
T/C [8]: 105 % of control

Cc1c2c(c(C)c3c1C(=O)c1cc4c(cc1C3=O)OCO4)OC(C)(C)O2
T/C [9]: 89 % of control
T/C [10]: 94 % of control
T/C [11]: 100 % of control

COc1ccc(/C=C/c2ccc3ccccc3[n+]2C)cc1Br
T/C (dose: 12.5 mg/kg/injection, schedule: Q01DX005 (ip), vehicle: Klucel (hydroxypropylcellulose) (HPC)): 113 % of control
T/C (dose: 25.0 mg/kg/injection, schedule: Q01DX005 (ip), vehicle: Klucel (hydroxypropylcellulose) (HPC)): 113 % of control
T/C [6]: 113 % of control and 119 % of control

O=C(CC(NO)c1ccccc1)NO (centres undefined)
T/C [12]: 99 % of control
T/C [13]: 105 % of control
T/C [14]: 115 % of control

CCOc1ccccc1C(=O)Nc1ccc(Br)cc1
T/C [12]: 100 % of control
T/C [13]: 99 % of control
T/C [1]: 112 % of control
T/C [15]: 100 % of control
T/C [14]: 106 % of control
T/C [2]: 104 % of control
T/C [16]: 100 % of control
T/C (dose: 400.0 mg/kg/injection, schedule: Q01DX009 (ip), vehicle: Klucel (hydroxypropylcellulose) (HPC)): 97 % of control
T/C (dose: 400.0 mg/kg/injection, schedule: Q01DX009 (ip), vehicle: saline with Tween-80): 91 % of control
T/C [17]: 95 % of control

C(=C\c1cc(-c2cc(/C=C/c3ccccc3)[nH]n2)n[nH]1)/c1ccccc1
T/C [9]: 100 % of control
T/C [10]: 99 % of control

C=C1C(=O)OC2/C=C(\C)C(=O)CC3OC(C)(C)OC3(C)CC(OC(=O)/C(C)=C/C)C12 (centres undefined)
T/C (dose: 10.0 mg/kg/injection, schedule: Q01DX009 (ip), vehicle: saline with Tween-80): 99 % of control
T/C (dose: 20.0 mg/kg/injection, schedule: Q01DX009 (ip), vehicle: saline with Tween-80): 105 % of control
T/C (dose: 40.0 mg/kg/injection, schedule: Q01DX009 (ip), vehicle: saline with Tween-80): 90 % of control

c1ccc([C@H]2N[C@@H]2c2ccccn2)cc1
T/C [3]: 106 % of control
T/C [4]: 93 % of control

OC1COC2C(O)COC12 (centres undefined)
T/C (dose: 50.0 mg/kg/injection, schedule: Q01DX009 (ip), vehicle: saline): 102 % of control
T/C (dose: 100.0 mg/kg/injection, schedule: Q01DX009 (ip), vehicle: saline): 90 % of control

OCc1cc2ccc3ccccc3c2[nH]1
T/C [9]: 96 % of control
T/C [10]: 89 % of control
T/C [11]: 91 % of control

COc1cccc2c1C(=O)c1c(O)c3c(c(O)c1C2=O)C[C@@](O)(C(O)CO)C[C@@H]3OC1CC(NC(=O)C(F)(F)F)C(O)C(C)O1 (some centres undefined)
T/C (dose: 25.0 mg/kg/injection, schedule: Q01DX009 (ip), vehicle: other): 151 % of control and 152 % of control

Cc1ccc([B-]23OCC[N+]2(CNC(=O)C2=C(O)C4(O)C(=O)C5=C(O)c6c(O)cccc6C(C)(O)C5CC4C(N(C)C)C2=O)CCO3)cc1 (centres undefined)
T/C [6]: 108 % of control
T/C [7]: 108 % of control
T/C [8]: 113 % of control

O=S1(=O)C2CCC(Br)C1CCC2Br (centres undefined)
T/C (dose: 1.56 mg/kg/injection, schedule: Q01DX005 (ip), vehicle: Klucel (hydroxypropylcellulose) (HPC)): 99 % of control
T/C (dose: 3.12 mg/kg/injection, schedule: Q01DX005 (ip), vehicle: Klucel (hydroxypropylcellulose) (HPC)): 103 % of control
T/C (dose: 6.25 mg/kg/injection, schedule: Q01DX005 (ip), vehicle: Klucel (hydroxypropylcellulose) (HPC)): 100 % of control

CC(C)c1cccc(C(C)C)c1NC(=O)CCc1n[nH]c(=S)o1
T/C [3]: 105 % of control
T/C [4]: 106 % of control
T/C [5]: 105 % of control

CC(C)c1cccc(C2(C)C(=O)c3ccccc3C2=O)c1
T/C (dose: 100.0 mg/kg/injection, schedule: Q04DX002 (ip), vehicle: saline): 99 % of control
T/C (dose: 200.0 mg/kg/injection, schedule: Q04DX002 (ip), vehicle: saline): 102 % of control
T/C (dose: 400.0 mg/kg/injection, schedule: Q04DX002 (ip), vehicle: saline): 100 % of control

FC(F)(F)C(OP(OC(C(F)(F)F)C(F)(F)F)OC(C(F)(F)F)C(F)(F)F)C(F)(F)F
T/C [3]: 101 % of control
T/C [4]: 92 % of control
T/C [5]: 92 % of control

CC1(C)OC(=O)N=C1c1ccc(Cl)cc1
T/C (dose: 60.0 mg/kg/injection, schedule: Q01DX005 (ip), vehicle: Klucel (hydroxypropylcellulose) (HPC)): 107 % of control
T/C (dose: 120.0 mg/kg/injection, schedule: Q01DX005 (ip), vehicle: Klucel (hydroxypropylcellulose) (HPC)): 101 % of control

Cc1c2cc(Cl)c3ccccc3c2c[n+]2ccccc12
T/C (dose: 16.5 mg/kg/injection, schedule: Q01DX009 (ip), vehicle: saline): 111 % of control
T/C (dose: 25.0 mg/kg/injection, schedule: Q01DX009 (ip), vehicle: saline): 121 % of control
T/C (dose: 37.5 mg/kg/injection, schedule: Q01DX009 (ip), vehicle: saline): 124 % of control
T/C [18]: 113 % of control
T/C [15]: 121 % of control and 123 % of control
T/C [16]: 92 % of control
T/C [17]: 108 % of control

CCC(C)C[c-]1[c-][c-][c-][c-]1.[Cl][Zr][Cl].[c-]1[c-][c-][cH-][c-]1 (centres undefined)
T/C (dose: 6.25 mg/kg/injection, schedule: Q04DX002 (ip), vehicle: saline): 102 % of control
T/C (dose: 12.5 mg/kg/injection, schedule: Q01DX001 (ip), vehicle: saline with Tween-80): 100 % of control
T/C (dose: 12.5 mg/kg/injection, schedule: Q04DX002 (ip), vehicle: saline): 106 % of control
T/C (dose: 25.0 mg/kg/injection, schedule: Q01DX001 (ip), vehicle: saline with Tween-80): 98 % of control
T/C (dose: 25.0 mg/kg/injection, schedule: Q04DX002 (ip), vehicle: saline): 100 % of control
T/C (dose: 50.0 mg/kg/injection, schedule: Q01DX001 (ip), vehicle: saline with Tween-80): 97 % of control

CNC(=S)ON1CCCCC1
T/C [1]: 111 % of control
T/C [2]: 108 % of control

Cn1c(N)c2c(=O)n(C)c3c(c2c(C#N)c1=O)CCSc1ccccc1-3
T/C [3]: 94 % of control
T/C [4]: 93 % of control

CSCNC(=O)Nc1ccccc1
T/C [3]: 98 % of control
T/C [4]: 100 % of control
T/C [5]: 104 % of control

COc1ccc(NC(=O)c2sc(SC)nc2N)cc1
T/C [12]: 100 % of control
T/C [13]: 98 % of control
T/C [14]: 97 % of control

COc1ccc(C(=O)/C=C/c2c[nH]c3ccccc23)c(O)c1
T/C (dose: 15.0 mg/kg/injection, schedule: Q01DX005 (ip), vehicle: saline with Tween-80): 96 % of control
T/C (dose: 30.0 mg/kg/injection, schedule: Q01DX005 (ip), vehicle: saline with Tween-80): 96 % of control
T/C [9]: 96 % of control
T/C [10]: 92 % of control
T/C [11]: 96 % of control

COc1ccc(-n2c(C)csc2=S)cc1
T/C [18]: 100 % of control
T/C [15]: 100 % of control
T/C [16]: 95 % of control

CC1(C)C2CCC(O2)C(C)(C)C2CCC(O2)C(C)(C)C2CCC(O2)C(C)(C)C2CCC1O2
T/C [3]: 102 % of control
T/C [4]: 100 % of control
T/C [5]: 95 % of control

CSC(=N\N=C\c1ccc(N(C)C)cc1)/N=C/N(C)C
T/C [9]: 100 % of control
T/C [10]: 103 % of control
T/C [11]: 103 % of control

O=C(Nc1ccccc1)/C(Cl)=C1/Sc2ccccc2NC1=O
T/C [9]: 104 % of control
T/C [10]: 107 % of control
T/C [11]: 99 % of control
